# US6800481B1, “Stable macroscopic membranes formed by self-assembly of amphiphilic peptides and uses therefor” (priority 1992, dated 2004)
# Residues, ends and D or L forms follow the SMILES beside them.
# Key:
# 3T3 = test: Cell attachment to biopolymer sheets, normal or Ca++ and Mg++ free medium (Table 6); type: cell-based, mouse; parameters: key: ++++: strong attachment; +++: moderate attachment; ++: weak attachment; +/−: little or no attachment
# Method: Cells were pretreated in serum-free medium containing 30 μg/ml cyclohexamide for 2 hours before introduction to the peptide membranes. The cells used for the calcium and magnesium-free condition were pre-equilibrated in Ca^++ and Mg^++ free medium containing 5 mM EDTA for 15 minutes before introduction to the peptide membranes. Cells were allowed to attach to the peptide membranes for 30 minutes, 1 and 8 hours at 37° C. The attached cells were shaken for […] on a rotary rocker at 60 r.p.m., then scored under phase contrast microscopy.
# [1] = type: physicochemical
# Method: Once formed, the macroscopic membranes are stable in a variety of aqueous solutions, including water, phosphate-buffered saline (PBS), tissue culture medium, serum, and also in ethanol, and can be transferred to and stored in any of these liquids. […] The membranes can be transferred from one solution to another using a solid support such as a spatula. They can be broken by cutting, tearing or shearing.
# The stability of the membranes was also tested under a range of temperature, pH and chemical conditions. For these experiments, membranes were formed by adding 20 μl of a 0.5 mM stock solution of EAK16 to 0.5 ml of PBS, and transferred into water or other solutions at test conditions.
# The membranes could be frozen and thawed, although care was required in handling the frozen membranes which were brittle. In boiling water, the membranes tended to be sheared by the mechanical agitation. […] (FIGS. 9A and 9B). […] Such strong thermal stability of the defined β-sheet structure of EAK16 is unusual for a small peptide. For example, these findings contrast with the α-helix-forming sixteen residue (Ala, Glu, Lys)-containing peptides studied previously (Marqusee and Baldwin, 1987).
# The EAK16 membranes were also tested in water at pH 1.5, 3, 7 and 11 at room temperature for at least a week and at 95° C. for about 4 hours. The membranes were unaffected at these pH. […] It is possible that the complementary interactions between the Glu and Lys side-chains are strong even when the carboxyl groups of the Glu residues have been protonated at pH 1.5 and 3, due to their ability to form hydrogen bonds even when protonated.
# The EAK16 membranes were further tested for resistance to chemical denaturation under the following conditions: 1% and 10% sodium dodecyl sulfate (SDS); 1, 2, 3, 4, 5, 6 and 7 M guanidine-HCl; and 1, 2, 3, 4, 5, 6, 7 and 8 M urea. […] The membranes were also tested at 95° C. for 4 hours in 10% SDS; 7 M guanidine-HCl; and at 8 M urea.
smiles,measurement,setting,value
CC(=O)N[C@@H](C)C(=O)N[C@@H](CCC(=O)O)C(=O)N[C@@H](C)C(=O)N[C@@H](CCC(=O)O)C(=O)N[C@@H](C)C(=O)N[C@@H](CCCCN)C(=O)N[C@@H](C)C(=O)N[C@@H](CCCCN)C(=O)N[C@@H](C)C(=O)N[C@@H](CCC(=O)O)C(=O)N[C@@H](C)C(=O)N[C@@H](CCC(=O)O)C(=O)N[C@@H](C)C(=O)N[C@@H](CCCCN)C(=O)N[C@@H](C)C(=O)N[C@@H](CCCCN)C(N)=O [EAK16] (Ac-AEAEAKAKAEAEAKAK-NH2),cell attachment,"3T3; 3T3, 30 min, Ca^++ & Mg^++ free, EDTA serum-free + Cyclohex",++++
same,cell attachment,"3T3; 3T3, 30 min, Normal Ca^++ & Mg^++ serum-free + Cyclohex",++++
same,cell attachment,"3T3; 3T3, 60 min, Ca^++ & Mg^++ free, EDTA serum-free + Cyclohex",++++
same,cell attachment,"3T3; 3T3, 60 min, Normal Ca^++ & Mg^++ serum-free + Cyclohex",++++
same,stability of membranes and filaments in liquids,[1],"stable in aqueous solution, in serum, and in ethanol"
same,stability of membranes in water or PBS,[1],stable in water or PBS for at least a week
same,stability of membranes in water over temperature,[1],"stable in water over a wide range of temperatures: up to 95° and at 4°, −20°, and −80 °C"
same,resistance of membranes to chemical denaturation at room temperature,"[1]; 1% and 10% SDS, 1-7 M guanidine-HCl, 1-8 M urea, room temperature at least 4 days",remained stable
same,membranes in 8 M urea at 95° C.,"[1]; 95° C. for 4 hours, 8 M urea",dissolved
same,membranes in SDS and 7 M guanidine-HCl at 95° C.,"[1]; 95° C. for 4 hours, 10% SDS, 7 M guanidine-HCl",remained intact
same,pH at which membranes and filaments are stable,[1]; alkaline and acidic pH,1.5-11
